In PubChem BioAssay (NCI) one finds TGI and GI50 data, which are given here for 13 compounds.

What all share (assay): DTP human tumour cell line panel, 48 h
Assay [1] concerns 786-0 renal.
Assay [2] relates to A498 renal.
The subject of assay [3] is A549 NSCLC.
For assay [4], the system named is ACHN renal.
Assay [5] relates to M14 melanoma.
The test system of assay [6] is RPMI-8226 leukemia.
Assay [7] relates to SNB-75 CNS.
In assay [8] the test system is SR leukemia.
Assay [9] has as its system TK-10 renal.
Assay [10] deals with PC-3 prostate.

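Growth conditions: 96-well plates. Treatment: test compound, 48 hours, 5 concentrations. Analysis: linear interpolation between bracketing concentrations; unreached endpoints set to highest concentration. GI50: concentration for 50% inhibition of growth. TGI: total growth inhibition.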

With `CCOC(=O)NN1C(=O)C(=P(c2ccccc2)(c2ccccc2)c2ccccc2)C(C(=O)OC)=C1C`, the TGI in assay [1], in [2], in assay [3], in assay [4], in assay [5] and in [6] was > 100 µM in each case. Further, the total growth inhibition concentration (TGI) in assay [7], in [8] and in assay [9] was > 100 µM throughout.
Regarding `Cc1nc(Nc2ccc(Cl)cc2)sc1C(=O)Nc1cccc2c(=O)[nH][nH]c(=O)c12`, the TGI in assay [1] is 47.9 µM; in assay [2], 59.4 µM; in assay [3], > 100 µM; in assay [4] it was > 100 µM; in [5] it was 86.2 µM; in assay [7], 83.4 µM. Also, the TGI is 64.8 µM in [8] and > 100 µM in assay [9].
Consider `O=C(CC1(O)CCCCC1)OC1CCCC1`, for which the TGI in assay [1], in assay [2], in [3], in assay [4], in [5] and in [10] was > 100 µM each time. Moreover, the TGI in [7] and in assay [9] was > 100 µM throughout.
As to `CCNc1ccc2c(c1)C(=O)N(OS(C)(=O)=O)C2=O`, the TGI in assay [1], in assay [2], in assay [3], in [4], in assay [5] and in assay [10] was > 100 µM each time. Also, the TGI is 87.3 µM in assay [6] and > 100 µM in assay [9].
With `CCNC(=O)COc1ccc(Cl)c(C)c1`, the TGI in [1], in assay [2], in assay [3], in assay [4], in assay [5] and in [6] was > 100 µM throughout. Also, the TGI in assay [7], in assay [8] and in assay [9] was > 100 µM throughout.
`COc1cc(N)c(Cl)cc1C(=O)N[C@@H]1CCN(CCCOc2ccc(F)cc2)C[C@@H]1OC`: the GI50 in assay [1] is 55.5 µM; in assay [3] it was > 100 µM; in [4] it was > 100 µM; in assay [5] it was 27.4 µM; in [7], > 100 µM; in [8], 13.6 µM. Also, the GI50 in assay [9] was > 100 µM. Besides, the TGI in assay [1] was > 100 µM; in assay [3], > 100 µM; in [4] it was > 100 µM; in [5], 88.8 µM; in assay [7], > 100 µM; in assay [8] it was 50.4 µM. Moreover, in assay [9], the TGI is > 100 µM.
As for `C/C(=N/NC(N)=S)C(CN1CCOCC1)C(C1=C(O)c2ccccc2OC1)c1ccccc1` (centres undefined), the TGI in assay [1], in [2], in assay [3], in assay [4], in assay [5] and in [6] was > 100 µM in each case. Further, the TGI in assay [7], in [8] and in assay [9] was > 100 µM throughout.
With `NCCOCCOCC(=O)O`, the TGI in assay [1], in assay [3], in assay [4], in [6], in [7] and in [8] was > 100 µM throughout. Further, in assay [9], the TGI is > 100 µM.
For the compound `COC(=O)c1c(C(=O)O)c(-c2ccccc2)c(-c2ccccc2)c(-c2ccccc2)c1-c1ccccc1`, the GI50 in assay [1] was > 100 µM; in assay [3], > 100 µM; in [4], > 100 µM; in [5] it was > 100 µM; in [10], > 100 µM; in assay [6], 88.8 µM. The GI50 is 47.6 µM in assay [7] and > 100 µM in assay [9]. Moreover, the TGI in assay [1], in [3], in [4], in assay [5], in [10] and in assay [6] was > 100 µM in each case. Moreover, the TGI in [7] and in [9] was > 100 µM throughout.
In the case of `CSC(=S)NCc1cn(C)c2ccccc12`, the GI50 in [1] was 24.8 µM; in assay [2], 12.8 µM; in assay [3], 38.1 µM; in assay [4], 21.9 µM; in [5], 64.8 µM; in assay [10], 33 µM. Besides, the GI50 in assay [6] was 30.7 µM; in assay [7] it was 51.4 µM; in assay [9] it was 28.7 µM. The TGI in assay [1] is > 100 µM; in assay [2], 29.2 µM; in assay [3] it was > 100 µM; in assay [4] it was > 100 µM; in assay [5], > 100 µM; in [10], > 100 µM. The TGI in assay [6], in [7] and in assay [9] was > 100 µM each time.
`Cn1cnnc1Sc1c([N+](=O)[O-])nc(-c2ccc([N+](=O)[O-])cc2)n1C`: the TGI in [1] was 31.8 µM; in [2], > 100 µM; in [3] it was > 100 µM; in assay [4], 33.7 µM; in [5] it was 30.6 µM; in assay [6], 37.8 µM. Besides, the TGI is 87.5 µM in [7], 35.5 µM in [8] and 32.9 µM in [9].
`COc1cc(C2CC(c3ccc(Cl)cc3)=NN2C(C)=O)ccc1Oc1ccnc2cc(Cl)ccc12` (centres undefined): the GI50 in [1] is 2.63 µM; in assay [2], 4.09 µM; in assay [5], > 100 µM; in assay [6], > 100 µM; in assay [7], 1.66 µM; in assay [8], > 100 µM. Further, the total growth inhibition concentration (TGI) was > 100 µM in [1]; > 100 µM in assay [2]; > 100 µM in assay [5]; > 100 µM in assay [6]; 7.76 µM in assay [7]; > 100 µM in assay [8].
In the case of `COC(OC)c1cccnc1C`, the total growth inhibition concentration (TGI) in [1], in [3], in assay [4], in assay [5], in assay [7] and in assay [8] was > 100 µM in each case. Further, the TGI in assay [9] is > 100 µM.
